From patent publication US20040191168A1, “Tumor cell killing by cell cycle checkpoint abrogation combined with Inhibition of the classical mitogen activated protein (map) kinase pathway” (priority 2000, published 2004)
“And” between values parts separate entries of the source, which are not always exact repeats. Equal entries are not always repeated.

Legend:
Type in all cases: cell-based, human
U937 cells [1] = experiment: S-phase content by BrdUrd incorporation in U937 cells; details: 12 and 18 h, UCN-01 150 nM, PD184352 10 μM, FIG. 3B
Procedure: (§1) Cell Cycle Analysis and S-phase Content. Cells (2×10^6) were pelleted at 4° C., resuspended, fixed at 4° C. with 67% ethanol overnight, and treated on ice with a propidium iodide solution containing 3.8 mM Na citrate, 0.5 mg/ml RNase A (Sigma Chemical Co.), and 0.01 mg/ml propidium iodide (Sigma Chemical Co.) for 3 h. Cell cycle analysis was performed by flow cytometry using Verity Winlist software (Topsham, Me.). Incorporation of BrdUrd was monitored to evaluate S-phase content. For each condition, 2 3 10 6 cells (cell density 5 5 3 10 5 /ml) were incubated with […] BrdUrd for 30 min at 37° C. After washing twice with 1% BSA/PBS, the cells were resuspended in 70% ethanol and fixed for 30 min on ice. The BrdUrd-labeled cells were denatured and nuclei released by incubation with 2 N HCl/0.5% Triton X-100 for 30 min at room temperature. After centrifugation, the pellet was resuspended in 0.1 M […] (pH 8.5) to neutralize the acid. […] After washing once with 0.5% Tween 20/1% BSA/PBS, the cells were resuspended in PBS containing […] propiditun iodide and analyzed by flow cytometry. The percentage of S-phase cells was determined by measuring BrdUrd FITC-positive part in a dot plot of FL-3 (red fluorescence) against FL-1 (green fluorescence).

U937 cells [2] = experiment: Cell cycle analysis (propidium iodide flow cytometry) in U937 cells; details: 18 h, UCN-01 150 nM, PD184352 10 μM, FIG. 3A
Procedure: as §1

MAPK/ERK = experiment: p42 MAPK immune complex kinase assay in carcinoma cells; details: MCF7, MDA-MB-231, T47D and DU145 cells; UCN-01 150 nM; MEK1/2 inhibitors (PD98059 25 μM, PD184352 10 μM, U0126 5 μM) given with UCN-01
Procedure: Immunoprecipitations from Lysates. Fifty microliters of Protein A agarose (Ag) slurry (25 μl bead volume) was washed twice with 1 ml PBS containing 0.1% (v/v) Tween 20, and resuspended in 0.1 ml of the same buffer. Antibodies (2 μg, 20 μl), serum (20 μl) were added to each tube and incubated (3 h, 4° C.). For pre-conjugated antibodies,10 μl of slurry (4 μg antibody) was used. Clarified equal aliquots of lysates (0.25 ml, 100 μg total protein) were mixed with Ag-conjugated antibodies in duplicate using gentle agitation (2.5 h, 4° C.). Ag-antibody-antigen complexes were recovered by centrifugation, the supernatant discarded, and washed (10 min) sequentially with 0.5 ml buffer A (twice), PBS and buffer B [25 mM Hepes, pH 7.4, 0.1 mM Na3VO4].
Assay of p42^MAPK activity. Immunoprecipitates were incubated (final volume 50 μl ) with 50 μl of buffer B containing 0.2 mM [γ-^32P]ATP (5000 cpm/pmol), 1 μM Microcystin-LR, 0.5 mg/ml myelin basic protein NP), which initiated reactions at time=0. After 20 min., 40 μl of the reaction mixtures were spotted onto a 2 cm circle of P81 paper (Whatman, Maidstone, England) and immediately placed into 180 mM phosphoric acid. Papers were washed four times (10 min each) with phosphoric acid, and once with acetone, and ^32P-incorporation into MBP was quantified by liquid scintillation spectroscopy.

U937 cells [3] = experiment: Morphological assessment of apoptosis (Wright-Giemsa cytospins) in U937 cells; details: U937 cells; for apoptosis (cell death): UCN-01 150 nM, FIG. 1A
Procedure: Experimental Format. All of the experiments were performed using logarithmically growing cells (3-5×10^5 cells/ml). Cell suspensions were placed in sterile 25 cm^2 T-flasks (Corning, Corning, N.Y.) and incubated with MEK or PKC inhibitors for 30 min at 37° C. At the end of this period, UCN-01 (or in some cases, caffeine) was added to the suspension, and the flasks were placed in 37° C./5% CO2 incubator at various intervals, generally 18 h. In some studies, the p38 MAP kinase inhibitor SB203580 was added concurrently with MEK inhibitors. After drug treatment, cells were harvested and subjected to further analysis as described below.
Analysis of Apoptosis. […] For each condition, 5 to 10 randomly selected fields/condition were evaluated, encompassing at least 500 cells (Vrana and Grant, 2001). To confirm the results of morphological analysis, in some cases cells were also evaluated by TUNEL staining (Gorczyca et al., 1993) and assessment of oligonucleosomal DNA fragmentation of total DNA. DNA fragmentation was analyzed by 1.8% agarose gel electrophoresis as described previously (Jarvis et al., 1994). For TUNEL staining, cytocentrifuge preparations were obtained and fixed with 4% formaldehyde. The slides were treated with acetic acid/ethanol (1:2), stained with terminal transferase reaction mixture containing terminal transferase reaction buffer, 0.25 units/ ml terminal transferase, 2.5 mM CoCl2, and 2 pmol fluorescein-12-dUTP (Boehringer Mannheim, Indianapolis, Ind.), and visualized using fluorescence microscopy.

| Compound | number of BrdUrd-positive (S-phase) cells (U937 cells [1]) | cell cycle distribution (U937 cells [2]) | MAPK/ERK activity (immune complex kinase assay) (MAPK/ERK) | Apoptotic cells (%) (U937 cells [3]; 18 h, PD184352 10 μM, GFX 1 μM, safingol 2 μM, mean ± SD) | apoptosis (cell death) (U937 cells [3]; 18 h, PD184352 10 μM) | percentage of apoptotic cells (U937 cells [3]; 24 hr, 100 nM UCN-01, 10 μM LY294002, FIG. 14) |
| --- | --- | --- | --- | --- | --- | --- |
| O=C(NOCC1CC1)c1ccc(F)c(F)c1Nc1ccc(I)cc1Cl [PD184352] | modest decline | little effect on the cell cycle distribution | opposed | 1.8 ± 0.1% and 2.1 ± 0.1% | 10% | – |
| CN[C@@H]1C[C@H]2O[C@@](C)([C@@H]1OC)n1c3ccccc3c3c4c(c5c6ccccc6n2c5c31)C(=O)N[C@H]4O [UCN-01, 7-hydroxystaurosporine] | no effect | primarily depleted the G2 M population | activation of MAPK/ERK was observed | – | 10% | about 20% |
